Source: PubChem BioAssay (NCI)
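A five-concentration, 48-hour dose response in 96-well plates underlies each endpoint, interpolated linearly between surrounding concentrations. TGI denotes the concentration required for complete inhibition of growth.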

How the values were obtained:
Assay in all cases: growth of human tumour cells (NCI), 48 h
OVCAR-5 ovarian = test system: OVCAR-5 ovarian
EKVX NSCLC = test system: EKVX NSCLC
TK-10 renal = test system: TK-10 renal
A549 NSCLC = test system: A549 NSCLC
SK-MEL-5 melanoma = test system: SK-MEL-5 melanoma
OVCAR-4 ovarian = test system: OVCAR-4 ovarian
HOP-92 NSCLC = test system: HOP-92 NSCLC
COLO 205 colon = test system: COLO 205 colon
XF 498 CNS = test system: XF 498 CNS
K-562 leukemia = test system: K-562 leukemia
SNB-78 CNS = test system: SNB-78 CNS
SNB-19 CNS = test system: SNB-19 CNS
CCRF-CEM leukemia = test system: CCRF-CEM leukemia
KM20L2 colon = test system: KM20L2 colon
LXFL 529 NSCLC = test system: LXFL 529 NSCLC
SF-268 CNS = test system: SF-268 CNS
SNB-75 CNS = test system: SNB-75 CNS
OVCAR-3 ovarian = test system: OVCAR-3 ovarian
M14 melanoma = test system: M14 melanoma
NCI-H460 lung = test system: NCI-H460 lung
UO-31 renal = test system: UO-31 renal
SR leukemia = test system: SR leukemia
786-0 renal = test system: 786-0 renal
ACHN renal = test system: ACHN renal
SK-MEL-2 melanoma = test system: SK-MEL-2 melanoma
HL-60(TB) leukemia = test system: HL-60(TB) leukemia
OVCAR-8 ovarian = test system: OVCAR-8 ovarian
RPMI-8226 leukemia = test system: RPMI-8226 leukemia
HCT-15 colon = test system: HCT-15 colon
LOX IMVI melanoma = test system: LOX IMVI melanoma
HCT-116 colon = test system: HCT-116 colon
M19-MEL melanoma = test system: M19-MEL melanoma
DMS 114 small cell lung = test system: DMS 114 small cell lung
DLD-1 colon = test system: DLD-1 colon
HCC-2998 colon = test system: HCC-2998 colon
NCI-H522 lung = test system: NCI-H522 lung
UACC-257 melanoma = test system: UACC-257 melanoma
NCI-H23 lung = test system: NCI-H23 lung
SK-MEL-28 melanoma = test system: SK-MEL-28 melanoma
U251 CNS = test system: U251 CNS
SF-539 CNS = test system: SF-539 CNS
NCI-H226 lung = test system: NCI-H226 lung
HOP-62 NSCLC = test system: HOP-62 NSCLC
UACC-62 melanoma = test system: UACC-62 melanoma
SN12C renal = test system: SN12C renal
MALME-3M melanoma = test system: MALME-3M melanoma
KM12 colon = test system: KM12 colon
CAKI-1 renal = test system: CAKI-1 renal
MOLT-4 leukemia = test system: MOLT-4 leukemia
SW-620 colon = test system: SW-620 colon
HT29 colon = test system: HT29 colon
A498 renal = test system: A498 renal
SK-OV-3 ovarian = test system: SK-OV-3 ovarian
IGROV1 ovarian = test system: IGROV1 ovarian
HOP-18 NSCLC = test system: HOP-18 NSCLC
SF-295 CNS = test system: SF-295 CNS
RXF 393 renal = test system: RXF 393 renal

CC(C)OP(=O)(OC(C)C)/C(=N/Nc1ccc([N+](=O)[O-])cc1)NNC(=O)c1ccccc1
TGI (OVCAR-5 ovarian): > 100 µM
TGI (EKVX NSCLC): > 100 µM
TGI (TK-10 renal): > 100 µM
TGI (A549 NSCLC): > 100 µM
TGI (SK-MEL-5 melanoma): 32 µM
TGI (OVCAR-4 ovarian): 99.2 µM
TGI (HOP-92 NSCLC): 61.3 µM
TGI (COLO 205 colon): > 100 µM
TGI (XF 498 CNS): 48.1 µM
TGI (K-562 leukemia): > 100 µM
TGI (SNB-78 CNS): 80.4 µM
TGI (SNB-19 CNS): > 100 µM
TGI (CCRF-CEM leukemia): 55.4 µM
TGI (KM20L2 colon): > 100 µM
TGI (LXFL 529 NSCLC): 68.5 µM
TGI (SF-268 CNS): > 100 µM
TGI (SNB-75 CNS): > 100 µM
TGI (OVCAR-3 ovarian): > 100 µM
TGI (M14 melanoma): > 100 µM
TGI (NCI-H460 lung): > 100 µM
TGI (UO-31 renal): > 100 µM
TGI (SR leukemia): 50.9 µM
TGI (786-0 renal): > 100 µM
TGI (ACHN renal): > 100 µM
TGI (SK-MEL-2 melanoma): > 100 µM
TGI (HL-60(TB) leukemia): 68.9 µM
TGI (OVCAR-8 ovarian): > 100 µM
TGI (RPMI-8226 leukemia): > 100 µM
TGI (HCT-15 colon): > 100 µM
TGI (LOX IMVI melanoma): 70.8 µM
TGI (HCT-116 colon): > 100 µM
TGI (M19-MEL melanoma): 41.2 µM
TGI (DMS 114 small cell lung): 43.1 µM
TGI (DLD-1 colon): > 100 µM
TGI (HCC-2998 colon): 70.4 µM
TGI (NCI-H522 lung): > 100 µM
TGI (UACC-257 melanoma): > 100 µM
TGI (NCI-H23 lung): 79.3 µM
TGI (SK-MEL-28 melanoma): 91.3 µM
TGI (U251 CNS): 76.7 µM
TGI (SF-539 CNS): > 100 µM
TGI (NCI-H226 lung): > 100 µM
TGI (HOP-62 NSCLC): > 100 µM
TGI (UACC-62 melanoma): 36.5 µM
TGI (SN12C renal): > 100 µM
TGI (MALME-3M melanoma): > 100 µM
TGI (KM12 colon): > 100 µM
TGI (CAKI-1 renal): > 100 µM
TGI (MOLT-4 leukemia): 42.2 µM
TGI (SW-620 colon): > 100 µM

CCCc1nn(C)c(CCC(=O)N(Cc2ccccc2)Cc2ccccc2)c1CC
TGI (OVCAR-5 ovarian): > 100 µM
TGI (EKVX NSCLC): > 100 µM
TGI (TK-10 renal): > 100 µM
TGI (A549 NSCLC): > 100 µM
TGI (SK-MEL-5 melanoma): > 100 µM
TGI (OVCAR-4 ovarian): > 100 µM
TGI (HOP-92 NSCLC): > 100 µM
TGI (COLO 205 colon): > 100 µM
TGI (XF 498 CNS): > 100 µM
TGI (SNB-78 CNS): > 100 µM
TGI (SNB-19 CNS): > 100 µM
TGI (CCRF-CEM leukemia): > 100 µM
TGI (KM20L2 colon): > 100 µM
TGI (LXFL 529 NSCLC): > 100 µM
TGI (SF-268 CNS): > 100 µM
TGI (SNB-75 CNS): > 100 µM
TGI (OVCAR-3 ovarian): > 100 µM
TGI (M14 melanoma): > 100 µM
TGI (NCI-H460 lung): > 100 µM
TGI (HT29 colon): > 100 µM
TGI (A498 renal): > 100 µM
TGI (UO-31 renal): > 100 µM
TGI (SK-OV-3 ovarian): > 100 µM
TGI (786-0 renal): > 100 µM
TGI (ACHN renal): > 100 µM
TGI (SK-MEL-2 melanoma): > 100 µM
TGI (HL-60(TB) leukemia): > 100 µM
TGI (IGROV1 ovarian): > 100 µM
TGI (OVCAR-8 ovarian): > 100 µM
TGI (RPMI-8226 leukemia): > 100 µM
TGI (HCT-15 colon): > 100 µM
TGI (LOX IMVI melanoma): > 100 µM
TGI (HCT-116 colon): > 100 µM
TGI (M19-MEL melanoma): > 100 µM
TGI (DMS 114 small cell lung): > 100 µM
TGI (DLD-1 colon): > 100 µM
TGI (HCC-2998 colon): > 100 µM
TGI (NCI-H522 lung): > 100 µM
TGI (UACC-257 melanoma): > 100 µM
TGI (NCI-H23 lung): > 100 µM
TGI (SK-MEL-28 melanoma): > 100 µM
TGI (U251 CNS): > 100 µM
TGI (HOP-18 NSCLC): > 100 µM
TGI (SF-539 CNS): > 100 µM
TGI (SF-295 CNS): > 100 µM
TGI (RXF 393 renal): > 100 µM
TGI (NCI-H226 lung): > 100 µM
TGI (HOP-62 NSCLC): > 100 µM
TGI (UACC-62 melanoma): > 100 µM
TGI (SN12C renal): > 100 µM
TGI (MALME-3M melanoma): > 100 µM
TGI (KM12 colon): > 100 µM
TGI (SW-620 colon): > 100 µM
